System: Spontaneously hypertensive rats (SHR)
Test: SBP of SHR by Tail-Cuff method, continuous intragastric administration for 8 days (Examples 1-7)
Assay type: in vivo, rat
Method: Spontaneously hypertensive rats (SHR), male, are provided by Beijing Vital River Laboratory Animal Technology Co., Ltd. The number of animal production license is SCXK (Jing) 2007-0001. Animals are raised in an observation room at the room temperature of 25±2° C. controlled by central air-conditioning system and with artificial lighting of 12 h/day. The animals are raised in separate cages sized 43×27×18 cm with 4 animals for each cage. The rats are free access to water and are fed with block fodder everyday, and the water supply is refreshed once a day. The temperature of the room for measuring the blood pressure is 26±2° C.
The blood pressure is measured by Tail-Cuff method and the hear rate is measured according to the pulse frequency. Animals are pre-trained for the blood pressure measurement for more than 2 weeks so as to adapt to the environment of measurement. Animals are placed in a isothermal bag at 37° C. to be prewarmed for 5 to 10 min for formal measurement. Blood pressures of the rats are measured from tail arteries for 2 to 3 times at rest states, and an average value is taken as each blood pressure measured value. All data are collected and preserved by a computer.
SHRs with systolic blood pressures (SBPs) >190 mmHg are selected for experiment.
Rats are randomly divided into 14 groups according to their blood pressures with each group having 7 rats. Animals are fasted overnight and measured for the blood pressure of pre-administration at the day of experiment, and then administered drugs in accordance with the following method:
The single-drug group is intragastrically administered candesartan (Can) or chlorthalidone (Chl), with the dosage of Can of 0.36 mg/kg and the dosages of Chl of 0.0675, 0.36, 0.54, 0.72, 1.125 and 2.25 mg/kg respectively;
The pharmaceutical composition is administered with 6 different doses (denoted by F1, F2, F3, F4, F5 and F6 respectively). Specifically, the ratios of the dosages of Can+Chl in all pharmaceutical compositions are:
The administration volumes are all 5 ml/kg.
Rats are continuously administered for 8 days. SBPs are measured 2, 4, 8, 12 and 24 hours after the last administration. The area under blood pressure reduction-time curve from 0 to 24 h (AUC0-24) and the maximum blood pressure reduction value are calculated.
The calculated results are expressed as mean±standard error ( x±SE); statistical treatment is performed using unpaired t test between groups to compare the significance of the average difference; the interaction between drugs are determined by using factorial analysis of variance, and P<0.05 means the difference has statistical significance.

[1] = Chl 0.0675 mg/kg i.g. 8 days, 2 h after last administration
[2] = Chl 0.0675 mg/kg i.g. 8 days, 4 h after last administration
[3] = Chl 0.0675 mg/kg i.g. 8 days, 8 h after last administration
[4] = Chl 0.0675 mg/kg i.g. 8 days, 12 h after last administration
[5] = Chl 0.0675 mg/kg i.g. 8 days, 24 h after last administration
[6] = Chl 0.0675 mg/kg i.g. 8 days, pre-administration
[7] = Chl 0.36 mg/kg i.g. 8 days (Table 2), 2 h after last administration
[8] = Chl 0.36 mg/kg i.g. 8 days (Table 2), 4 h after last administration
[9] = Chl 0.36 mg/kg i.g. 8 days (Table 2), 8 h after last administration
[10] = Chl 0.36 mg/kg i.g. 8 days (Table 2), 12 h after last administration
[11] = Chl 0.36 mg/kg i.g. 8 days (Table 2), 24 h after last administration
[12] = Chl 0.36 mg/kg i.g. 8 days (Table 2), pre-administration
[13] = Chl 1.125 mg/kg i.g. 8 days, 2 h after last administration
[14] = Chl 1.125 mg/kg i.g. 8 days, 4 h after last administration
[15] = Chl 1.125 mg/kg i.g. 8 days, 8 h after last administration
[16] = Chl 1.125 mg/kg i.g. 8 days, 12 h after last administration
[17] = Chl 1.125 mg/kg i.g. 8 days, 24 h after last administration
[18] = Chl 1.125 mg/kg i.g. 8 days, pre-administration
[19] = Chl 2.25 mg/kg i.g. 8 days, 2 h after last administration
[20] = Chl 2.25 mg/kg i.g. 8 days, 4 h after last administration
[21] = Chl 2.25 mg/kg i.g. 8 days, 8 h after last administration
[22] = Chl 2.25 mg/kg i.g. 8 days, 12 h after last administration
[23] = Chl 2.25 mg/kg i.g. 8 days, 24 h after last administration
[24] = Chl 2.25 mg/kg i.g. 8 days, pre-administration
[25] = Chl, dosage 0.36 mg/kg in Table 3 (Example 3 title: 0.54 mg/kg), i.g. 8 days, 2 h after last administration
[26] = Chl, dosage 0.36 mg/kg in Table 3 (Example 3 title: 0.54 mg/kg), i.g. 8 days, 4 h after last administration
[27] = Chl, dosage 0.36 mg/kg in Table 3 (Example 3 title: 0.54 mg/kg), i.g. 8 days, 8 h after last administration
[28] = Chl, dosage 0.36 mg/kg in Table 3 (Example 3 title: 0.54 mg/kg), i.g. 8 days, 12 h after last administration
[29] = Chl, dosage 0.36 mg/kg in Table 3 (Example 3 title: 0.54 mg/kg), i.g. 8 days, 24 h after last administration
[30] = Chl, dosage 0.36 mg/kg in Table 3 (Example 3 title: 0.54 mg/kg), i.g. 8 days, pre-administration
[31] = Chl, dosage 0.36 mg/kg in Table 4 (Example 4 title: 0.72 mg/kg), i.g. 8 days, 2 h after last administration
[32] = Chl, dosage 0.36 mg/kg in Table 4 (Example 4 title: 0.72 mg/kg), i.g. 8 days, 4 h after last administration
[33] = Chl, dosage 0.36 mg/kg in Table 4 (Example 4 title: 0.72 mg/kg), i.g. 8 days, 8 h after last administration
[34] = Chl, dosage 0.36 mg/kg in Table 4 (Example 4 title: 0.72 mg/kg), i.g. 8 days, 12 h after last administration
[35] = Chl, dosage 0.36 mg/kg in Table 4 (Example 4 title: 0.72 mg/kg), i.g. 8 days, 24 h after last administration
[36] = Chl, dosage 0.36 mg/kg in Table 4 (Example 4 title: 0.72 mg/kg), i.g. 8 days, pre-administration

NS(=O)(=O)c1cc(C2(O)NC(=O)c3ccccc32)ccc1Cl (centres unmarked) [Chl, Chlorthalidone]
antihypertensive effect after the administration (Chl 0.0675 mg/kg): no significant antihypertensive effect | AUC0-24h (area under blood pressure reduction-time curve) (Chl 0.0675 mg/kg i.g. 8 days): −9.0 mmHg · h | maximum reduction of the blood pressure (Chl 0.0675 mg/kg i.g. 8 days): −4.7 mmHg | SBP [1]: 203 mmHg | SBP difference value compared with the basic value [1]: (−2.1 mmHg | SBP [2]: 206 mmHg | SBP difference value compared with the basic value [2]: (0.6 mmHg | SBP [3]: 204 mmHg | SBP difference value compared with the basic value [3]: (−1.4 mmHg | SBP [4]: 203 mmHg | SBP difference value compared with the basic value [4]: (−2.0 mmHg | SBP [5]: 207 mmHg | SBP difference value compared with the basic value [5]: (2.1 mmHg | SBP [6]: 208 mmHg | SBP difference value compared with the basic value [6]: (2.3 mmHg | AUC0-24h (area under blood pressure reduction-time curve) (Chl 0.36 mg/kg i.g. 8 days): −26.0 mmHg · h | maximum reduction of the blood pressure (Chl 0.36 mg/kg i.g. 8 days): −3.7 mmHg | SBP [7]: 205 mmHg | SBP difference value compared with the basic value [7]: (−0.6 mmHg | SBP [8]: 204 mmHg | SBP difference value compared with the basic value [8]: (−1.3 mmHg | SBP [9]: 204 mmHg | SBP difference value compared with the basic value [9]: (−1.3 mmHg | SBP [10]: 204 mmHg | SBP difference value compared with the basic value [10]: (−1.4 mmHg | SBP [11]: 205 mmHg | SBP difference value compared with the basic value [11]: (−0.4 mmHg | SBP [12]: 204 mmHg | SBP difference value compared with the basic value [12]: (−1.4 mmHg | AUC0-24h (area under blood pressure reduction-time curve) (Chl 0.54 mg/kg i.g. 8 days): −57.0 mmHg · h | maximum reduction of the blood pressure (Chl 0.54 mg/kg i.g. 8 days): −4.7 mmHg | AUC0-24h (area under blood pressure reduction-time curve) (Chl 0.72 mg/kg i.g. 8 days): −79.0 mmHg · h | maximum reduction of the blood pressure (Chl 0.72 mg/kg i.g. 8 days): −5.7 mmHg | time after administration at which an antihypertensive effect is seen (Chl 1.125 mg/kg): 4 h | AUC0-24h (area under blood pressure reduction-time curve) (Chl 1.125 mg/kg i.g. 8 days): −110.0 mmHg · h | maximum reduction of the blood pressure (Chl 1.125 mg/kg i.g. 8 days): −12.0 mmHg | SBP [13]: 205 mmHg | SBP difference value compared with the basic value [13]: (−2.9 mmHg | SBP [14]: 199 mmHg | SBP difference value compared with the basic value [14]: (−8.9 mmHg | SBP [15]: 201 mmHg | SBP difference value compared with the basic value [15]: (−6.3 mmHg | SBP [16]: 202 mmHg | SBP difference value compared with the basic value [16]: (−6.0 mmHg | SBP [17]: 207 mmHg | SBP difference value compared with the basic value [17]: (−0.4 mmHg | SBP [18]: 206 mmHg | SBP difference value compared with the basic value [18]: (−1.7 mmHg | period after administration with significant antihypertensive effect (Chl 2.25 mg/kg): 2 to 12 h | AUC0-24h (area under blood pressure reduction-time curve) (Chl 2.25 mg/kg i.g. 8 days): −199.0 mmHg · h | maximum reduction of the blood pressure (Chl 2.25 mg/kg i.g. 8 days): −15.0 mmHg | SBP [19]: 198 mmHg | SBP difference value compared with the basic value [19]: (−8.3 mmHg | SBP [20]: 192 mmHg | SBP difference value compared with the basic value [20]: (−11.3 mmHg | SBP [21]: 195 mmHg | SBP difference value compared with the basic value [21]: (−11.1 mmHg | SBP [22]: 197 mmHg | SBP difference value compared with the basic value [22]: (−9.4 mmHg | SBP [23]: 202 mmHg | SBP difference value compared with the basic value [23]: (−4.6 mmHg | SBP [24]: 205 mmHg | SBP difference value compared with the basic value [24]: (−1.3 mmHg | influence on the maximum reduction of SBP and the AUC compared with the blank control group (Chl 0.0675, 0.36, 0.54 and 0.72 mg/kg): no significant influence | influence on the maximum reduction of SBP and the AUC compared with the blank control group (Chl 1.125 and 2.25 mg/kg): significant decrease | SBP [25]: 202 mmHg | SBP difference value compared with the basic value [25]: (−2.0 mmHg | SBP [26]: 202 mmHg | SBP difference value compared with the basic value [26]: (−2.0 mmHg | SBP [27]: 201 mmHg | SBP difference value compared with the basic value [27]: (−3.7 mmHg | SBP [28]: 203 mmHg | SBP difference value compared with the basic value [28]: (−1.9 mmHg | SBP [29]: 202 mmHg | SBP difference value compared with the basic value [29]: (−2.6 mmHg | SBP [30]: 203 mmHg | SBP difference value compared with the basic value [30]: (−1.6 mmHg | SBP [31]: 203 mmHg | SBP difference value compared with the basic value [31]: (−3.9 mmHg | SBP [32]: 202 mmHg | SBP difference value compared with the basic value [32]: (−4.9 mmHg | SBP [33]: 202 mmHg | SBP difference value compared with the basic value [33]: (−4.9 mmHg | SBP [34]: 205 mmHg | SBP difference value compared with the basic value [34]: (−2.6 mmHg | SBP [35]: 205 mmHg | SBP difference value compared with the basic value [35]: (−2.4 mmHg | SBP [36]: 205 mmHg | SBP difference value compared with the basic value [36]: (−2.3 mmHg
